# Experimental data from patent US10179770B2, “Quinolines derivatives as novel anticancer agents” (GENOSCIENCE PHARMA, priority 2013, dated 2019).
# Key:
# Type in all cases: cell-based
# [1] = tested on: BxPC-3; experiment: Cell viability assay, pancreatic cancer cell lines; settings: Homo sapiens; BxPC-3 (Pancreas); 48 h
# Method: (§1) MiaPaCa-2, Panc-1 cells were grown in Dulbecco's modified eagle's medium (DMEM) (Gibco) supplemented with 10% fetal bovine serum (FBS), while BxPC-3, Capan-1, Capan-2 cells were grown in Roswell Park Memorial Institute 1640 (RPMI 1640) (Gibco) supplemented with 10% FBS. Gemcitabine (Gemzar) was purchased from Lilly France S.A.S (Suresnes, France). (3-(4,5-dimethylthiazol-2-yl)-2,5diphenyltetrazolium bromide, MTT) was purchased from Sigma-Aldrich.
# (§2) BxPC-3, MiaPaCa-2, Panc-1 cells were seeded into a 96-well plate at 10,000 10,000 15,000 cells per well respectively, while Capan-1 and Capan-2 cells at 20,000 cells per well and allowed to adhere overnight. Then the culture medium was removed and replaced with fresh media alone as control or containing various concentrations of different compounds. In dose-dependent assay, the cells were treated with compound XIX-3 at the concentration varying from 0.1 μM to 100 μM while the cells being cultured by fresh media alone were used as control. After 48 h treatment, the number of remained viable cells was determined by (3-(4,5-dimethylthiazol-2-yl)-2,5diphenyltetrazolium bromide, MTT) colorimetric assay (see Sigma Aldrich protocol and Riss T. L. et al. Cell Viability Assays in Assay Guidance Manual 2013 ppl.). All experiments were done in duplicate and repeated two independent times.
# [2] = tested on: Capan-2; experiment: Cell viability assay, pancreatic cancer cell lines; settings: Homo sapiens; Capan-2 (Pancreas); 48 h
# Method: as §1, §2
# [3] = tested on: Panc-1; experiment: Cell viability assay, pancreatic cancer cell lines; settings: Homo sapiens; Panc-1 (Pancreas); 48 h
# Method: as §1, §2
# [4] = tested on: MIA PaCa-2; experiment: Cell viability assay, pancreatic cancer cell lines; settings: Homo sapiens; MIA PaCa-2 (Pancreas); 48 h
# Method: as §1, §2
# [5] = tested on: U87-MG; experiment: CellTiter 96 Aqueous One Solution (MTS) cell proliferation assay; settings: Homo sapiens, U-87 MG; U87-MG (Glioma); Cell Titer 96 Aqueous One Solution; 72 h; mean of seven independent triplicate assays
# Method: The human glioblastoma cell line U87-MG was cultured in Minimum Essential Medium (Life Invitrogen, 31095029) supplemented with 10% fetal bovine serum (GIBCO, 10500-056) and 1 % penicillin-streptomycin (GIBCO, 15140-122). Flasks and plated used for the cell culture were coated with 25 μg/mL poly-D-lysine (Sigma, P7280).
# Cell outgrowth was measured using a tetrazolium compound (3-[4,5-dimethylthiazol-2-yl]-5-[3-carboxymethoxyphenyl]-2-[4-sulfophenyl]-2H tetrazolium, inner salt [MTS]) from the CellTiter 96® Aqueous One Solution Cell Proliferation Assay (Promega, Ref G3580) and according to the manufacturer procedure.
# 5000 cells were plated onto 96-well plates in 100 μL of media per well and were allowed to grow overnight before the assay. Compounds were added at different concentrations to each well, and cell cultures were incubated for 72 h. Control compound was the diluent used for compound resuspension (H2O). After addition of 20 μL of CellTiter 96® Aqueous One Solution, absorbance at 492 nm was measured using a microplate reader Sunrise (Tecan). EC50 values were determined as the dose of compound required to reduce […] values to 50% of the signal obtained for untreated cell cultures. […] The experimental data are analyzed using a computer program, Graphpad Prism (GraphPad Software, Inc. La Jolla, Calif.).
# [6] = tested on: OVCAR-4; experiment: NCI-60 screen (SRB); settings: OVCAR-4 (Ovarian)
# Method in brief: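 Cells grown in RPMI 1640 with 5% FBS were plated, left 24 h, then exposed to five drug concentrations for 48 h at 37 °C. TCA-fixed protein was stained with SRB and read at 515 nm. GI50, TGI and LC50 were derived against time-zero and untreated control absorbances.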
smiles,measurement,setting,value
"CCN(CC)C1CCN(C(C)c2cc(-c3ccccc3)nc3ccccc23)CC1.Cl.Cl (stereo not drawn) [XIX-3, 2-phenyl-4-{1-[4-(N,N-diethylamino)piperidin-1-yl]-eth-1-yl}quinoline dihydrochloride]",EC50,[1],33 µM
same,EC50,[2],32 µM
same,EC50,[3],34 µM
same,EC50,[4],34 µM
same,EC50,[5],26 µM
same,GI50,[6]; Homo sapiens,11 µM
same,CC50,"[6]; Homo sapiens, read-out: LC50 (the source's name)",52 µM
same,TGI,[6],24 µM
same,Growth percent at 10 μM,[6]; 10 μM,++ (cell growth 40 > % < 60)
